What was measured:
SNAT1 (SLC38A1) = target: T1, SNAT1 (SLC38A1) (Homo sapiens, UniProt Q9H2H9); experiment: glutamine uptake in Xenopus laevis oocytes expressing hSNAT1; type: cell-based
T1 sequence (Q9H2H9 1-487): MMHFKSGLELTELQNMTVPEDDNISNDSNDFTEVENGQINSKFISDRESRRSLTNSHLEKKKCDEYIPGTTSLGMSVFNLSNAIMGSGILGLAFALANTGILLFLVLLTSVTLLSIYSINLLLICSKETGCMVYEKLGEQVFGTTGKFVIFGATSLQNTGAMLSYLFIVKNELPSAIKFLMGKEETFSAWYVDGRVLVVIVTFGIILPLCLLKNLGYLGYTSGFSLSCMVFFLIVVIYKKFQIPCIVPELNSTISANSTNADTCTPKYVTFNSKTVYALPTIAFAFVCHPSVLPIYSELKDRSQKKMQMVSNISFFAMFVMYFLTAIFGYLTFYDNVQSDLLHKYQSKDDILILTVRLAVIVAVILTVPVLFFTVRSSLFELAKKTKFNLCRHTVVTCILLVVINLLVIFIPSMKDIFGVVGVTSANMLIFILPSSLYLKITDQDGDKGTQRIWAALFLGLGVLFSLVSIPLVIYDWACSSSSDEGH

LAT1 (SLC7A5) = target: T2, LAT1 (SLC7A5) (Rattus norvegicus, UniProt Q63016); experiment: isoleucine uptake in Xenopus laevis oocytes expressing h4F2hc/rLAT1; type: cell-based
T2 construct: with human 4F2hc
T2 sequence (Q63016 whole entry): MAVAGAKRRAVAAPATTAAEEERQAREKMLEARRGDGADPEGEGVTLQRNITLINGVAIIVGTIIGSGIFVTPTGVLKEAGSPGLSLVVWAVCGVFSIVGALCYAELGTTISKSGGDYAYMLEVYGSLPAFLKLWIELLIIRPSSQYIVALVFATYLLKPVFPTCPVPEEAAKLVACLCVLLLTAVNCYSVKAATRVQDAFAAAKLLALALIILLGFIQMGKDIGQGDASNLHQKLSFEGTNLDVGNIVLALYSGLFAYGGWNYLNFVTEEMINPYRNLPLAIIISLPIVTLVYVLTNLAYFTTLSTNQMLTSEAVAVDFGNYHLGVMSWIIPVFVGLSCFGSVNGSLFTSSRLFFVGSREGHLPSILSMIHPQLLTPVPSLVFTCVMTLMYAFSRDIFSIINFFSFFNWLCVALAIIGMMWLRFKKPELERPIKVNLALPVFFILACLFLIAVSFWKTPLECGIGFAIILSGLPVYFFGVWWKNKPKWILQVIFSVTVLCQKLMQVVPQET
T2 sequence (P08195 103-630 partner): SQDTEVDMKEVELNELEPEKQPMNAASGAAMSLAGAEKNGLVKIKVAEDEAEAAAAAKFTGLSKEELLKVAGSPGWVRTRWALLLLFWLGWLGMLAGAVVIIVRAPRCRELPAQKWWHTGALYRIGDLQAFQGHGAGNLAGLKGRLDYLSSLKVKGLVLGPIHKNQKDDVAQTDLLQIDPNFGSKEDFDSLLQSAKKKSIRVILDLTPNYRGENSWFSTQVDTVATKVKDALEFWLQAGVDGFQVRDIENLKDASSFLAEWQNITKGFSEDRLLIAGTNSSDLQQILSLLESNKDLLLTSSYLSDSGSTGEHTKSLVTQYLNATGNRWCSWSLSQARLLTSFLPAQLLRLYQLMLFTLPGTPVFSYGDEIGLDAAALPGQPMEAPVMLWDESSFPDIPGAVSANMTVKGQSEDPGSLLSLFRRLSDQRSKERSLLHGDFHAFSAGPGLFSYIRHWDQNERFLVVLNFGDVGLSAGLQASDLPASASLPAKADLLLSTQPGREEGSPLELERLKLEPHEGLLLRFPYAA

NC(=O)CC[C@H](N)C(=O)O [glutamine]
glutamine uptake in Xenopus laevis oocytes expressing hSNAT1 (SNAT1 (SLC38A1)): Glutamine uptake was used to measure hSNAT1, hSNAT2, and hASCT2 activity

CC[C@H](C)[C@H](N)C(=O)O [isoleucine]
isoleucine uptake in Xenopus laevis oocytes expressing h4F2hc/rLAT1 (LAT1 (SLC7A5)): isoleucine transport was used to measure h4F2hc/rLAT1 activity

Source: PMC6060247, “Disruption of Amino Acid Homeostasis by Novel ASCT2 Inhibitors Involves Multiple Targets” (Frontiers in Pharmacology, 2018)
